Measured values: article PMC4764579, “Structural insights into the mechanism of activation of the TRPV1 channel by a membrane-bound tarantula toxin” (eLife, 2016)
Positions of bridges follow the written chain, without caps; N, C: chain ends. Residues, ends and D or L forms follow the SMILES beside them.

Target: T1, rat TRPV1 (Rattus norvegicus, UniProt O35433)
T1 construct: expressed in transfected cells; host or cells: Xenopus laevis oocytes (cRNA injection, pGEM-HE vector)
Experiment: Two-electrode voltage clamp recordings of oocytes expressing TRPV1, toxin current normalised to saturating capsaicin
Assay type: cell-based
Settings: concentration-response, see Figure 3F
Excerpt: Figure 3. Validation of the proposed structural model of the TRPV1-DkTx complex. Close-up of K1 (A) and K2 (B) in the top-ranking ROSETTA model of DkTx bound to TRPV1. Side chains of TRPV1 residues where mutation disrupts DkTx-induced channel activation (I599, F649, A657 and F659) ([Bohlen et al., 2010]) are highlighted in purple. (C) Representative time courses of TRPV1 activation at +120 mV by either DkTx (left panel), K1K1 (middle panel) or K2K2 (right panel) measured from a train of voltage-ramps in the whole-cell configuration with the TRPV1 expressed in HEK cells. […] Fractional dissociation 1 min after toxin removal was quantified across cells as the current amplitude 1 min after toxin removal divided by the steady-state current amplitude in the presence of the toxin. […] Activation of the full-length TRPV1 channel by the toxin at different concentrations was measured in oocytes at a holding voltage of −60 mV. […]
Xenopus laevis oocytes were surgically removed and gently shaken for 60 min in a solution of 82.5 mM NaCl, 2.5 mM KCl, 1 mM MgCl2, 5 mM HEPES and 2 mg/mL collagenase. […] TRPV1 activity was recorded under voltage clamp using a two-electrode voltage clamp (OC-725C; Warner Instruments) in a 150-μL recording chamber. The recorded data were filtered at 1 kHz and digitized at 5 kHz using a digidata analog/digital converter and pClamp software (Molecular Devices). […]

T1 sequence (O35433 whole entry): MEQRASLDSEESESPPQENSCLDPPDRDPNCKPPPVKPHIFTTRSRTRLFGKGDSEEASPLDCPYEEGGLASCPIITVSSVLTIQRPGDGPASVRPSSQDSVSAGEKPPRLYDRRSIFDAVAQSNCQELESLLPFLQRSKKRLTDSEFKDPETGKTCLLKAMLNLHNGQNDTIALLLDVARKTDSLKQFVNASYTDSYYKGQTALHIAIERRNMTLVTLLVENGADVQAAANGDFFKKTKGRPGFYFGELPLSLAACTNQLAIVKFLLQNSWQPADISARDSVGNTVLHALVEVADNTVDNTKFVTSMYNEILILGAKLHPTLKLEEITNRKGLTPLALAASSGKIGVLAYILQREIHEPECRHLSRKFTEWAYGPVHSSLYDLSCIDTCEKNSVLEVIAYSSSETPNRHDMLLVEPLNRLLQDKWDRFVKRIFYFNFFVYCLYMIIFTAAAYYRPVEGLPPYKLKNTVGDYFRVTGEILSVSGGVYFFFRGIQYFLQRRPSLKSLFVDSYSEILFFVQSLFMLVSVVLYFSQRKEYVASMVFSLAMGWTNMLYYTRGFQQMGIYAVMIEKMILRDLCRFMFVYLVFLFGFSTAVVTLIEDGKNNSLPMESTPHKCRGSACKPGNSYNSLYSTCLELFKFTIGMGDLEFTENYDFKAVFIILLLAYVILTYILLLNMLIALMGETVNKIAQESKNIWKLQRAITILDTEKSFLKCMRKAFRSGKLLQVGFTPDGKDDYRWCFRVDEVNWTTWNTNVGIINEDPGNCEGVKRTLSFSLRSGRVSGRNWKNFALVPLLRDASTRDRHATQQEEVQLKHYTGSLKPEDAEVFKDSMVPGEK

Q: Which “concentration range where activation of TRPV1 saturates (in words)” value does the source give for `CC[C@H](C)[C@@H]1NC(=O)[C@H](Cc2ccccc2)NC(=O)[C@H](C)NC(=O)[C@H](CC(C)C)NC(=O)[C@@H]2CCCN2C(=O)[C@@H]2CSSC[C@@H]3NC(=O)[C@H](C(C)C)NC(=O)[C@H](CCC(=O)O)NC(=O)CNC(=O)[C@H](CCC(=O)O)NC(=O)[C@H](CCCCN)NC(=O)[C@H](C)NC(=O)[C@@H](NC(=O)[C@@H](N)CC(N)=O)CSSC[C@H](NC(=O)[C@H](CSSC[C@@H](C(=O)N[C@@H](CCC(=O)O)C(=O)N[C@@H](CCCCN)C(=O)N[C@@H](Cc4ccc(O)cc4)C(=O)N[C@@H](CCCNC(=N)N)C(=O)O)NC(=O)[C@H](Cc4ccc(O)cc4)NC(=O)[C@@H]4CCCN4C1=O)NC(=O)[C@H](CCCCN)NC(=O)[C@H](CO)NC(=O)CNC(=O)[C@H](Cc1c[nH]c4ccccc14)NC(=O)CNC3=O)C(=O)N[C@@H](Cc1c[nH]cn1)C(=O)NCC(=O)N[C@@H](CC(C)C)C(=O)N[C@@H](CC(=O)O)C(=O)N2` [K2] (H-NCAKEGEVCGWGSKCCHGLDCPLAFIPYCEKYR-OH; disulfide 2-16, 9-21, 15-29 (inferred); N-terminus and C-terminus assumed) here?
A: The value was “low micromolar range”.
